Measured values: patent publication US10907199B2, “Double-strand DNA break quantification method” (SOCIETE DE COMMERCIALISATION DES PRODUITS DE LA RECHERCHE …, priority 2017, dated 2021)

Biological target: T1, terminal deoxynucleotidyl transferase (TdT) (Bos taurus, UniProt P06526)
T1 construct: purchased Roche (Sigma-Aldrich Canada) 3333574001
Assay: TdT inhibition by ATP: tailing reaction of linearized pBlueScript plasmid with TdT and dATP, read by DNA size shift on agarose gel
Assay type: biochemical
Experimental: Linearized pBlueScript plasmid was used in a tailing reaction using TdT and dATP following manufacturer's instruction. Different concentrations of ATP were added in the reaction and the tailing efficiency was observed after agarose gel electrophoresis by a shift in the DNA size. It was sought to determine conditions for efficient repair of DNA nicks and gaps prior to the TdT end labeling. A proper combination of T4 DNA ligase and T4 DNA polymerase was used to seal nicks and fill the gaps respectively and termed «Nick and Gap Repair» (NGR). […] Limiting the purification steps is crucial to improve DNA recovery throughout the process. It was observed that TdT is inhibited by the high concentration of ATP recommended for DNA ligations (1 mM, FIG. 6). However, it was determined that efficient DNA nick sealing is still observed by decreasing the ATP concentration to 1 μM. […] From these simple modifications, both repair and labeling reactions can be performed without the need for DNA purification between these steps. It is worth noting that although the use of «Tap» DNA ligase would have the advantage of preventing DSB ligations, T4 DNA ligase was however strongly preferred because of its compatibility with the gap-filling step and its greater nick sealing activity (not shown). The efficiency of the repair step for the specific capture of DSBs within genomic DNA was established using HeLa-I-SceI DNA pre-digested with the nicking endonuclease Nt.BbvCI as this enzyme creates a single nick within a 7 nucleotide recognition sequence. A single Nt.BbvCI recognition sequence is present within the I-SceI insert and can be detected by DBrIC using a primer pair adjacent to the nick (FIG. 5C).

T1 sequence (P06526 139-509 limits assumed): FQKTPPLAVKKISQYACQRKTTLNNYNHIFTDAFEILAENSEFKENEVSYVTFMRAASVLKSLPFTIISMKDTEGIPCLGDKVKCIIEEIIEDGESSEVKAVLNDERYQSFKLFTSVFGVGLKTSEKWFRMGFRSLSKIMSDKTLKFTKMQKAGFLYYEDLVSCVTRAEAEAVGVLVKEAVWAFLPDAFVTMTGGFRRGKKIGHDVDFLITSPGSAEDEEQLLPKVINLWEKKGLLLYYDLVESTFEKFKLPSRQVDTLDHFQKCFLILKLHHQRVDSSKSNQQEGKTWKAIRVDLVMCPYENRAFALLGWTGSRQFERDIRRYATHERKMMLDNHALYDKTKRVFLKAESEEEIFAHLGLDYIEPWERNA

Nc1ncnc2c1ncn2[C@@H]1O[C@H](COP(=O)(O)OP(=O)(O)OP(=O)(O)O)[C@@H](O)[C@H]1O [ATP, adenosine triphosphate]
subsequent TdT reaction in presence of ATP (1 μM ATP): proceed normally
enzymatic activity of the TdT in presence of ATP (10 μM ATP (usual concentration for DNA ligase and DNA polymerase), FIG. 6): inhibit
TdT enzymatic activity (tailing efficiency) in presence of ATP (1 mM ATP (high concentration recommended for DNA ligations), FIG. 6): inhibited
